Experimental data reported in patent JP2008179567A, “ピラジン誘導体を有効成分とする抗がん剤” (Toray Industries Inc, priority 2007, dated 2008).

How the values were obtained:
[1] = Body weight and organ damage in mouse colon cancer model; type: in vivo; conditions: end of test, 50 mg/kg i.v.; sodium salt
[2] = test system: tumor derived from Colon26 cells, mouse colon cancer model [Colon26細胞由来の腫瘍, マウス結腸癌モデル]; experiment: Tumor growth inhibition in mouse colon cancer model (Colon26, BALB/c); type: in vivo; conditions: 50 mg/kg i.v., sodium salt

With `Nc1nn(-c2cncc(-n3ccc(CC(=O)O)c3)n2)c2cc(Cl)ccc12` [参考例6, 2-{1-[6-(3-アミノ-6-クロロ-1H-インダゾリル)ピラジン-2-イル]ピロール-3-イル}酢酸] the “body weight difference from control group” value [1] was “体重の差はなく”, the organ damage [1] was “各臓器の障害は何ら認められなかった” and the estimated tumor volume ([2]; from day 5 after start of dosing, compared with control group (Fig. 1)) was “対照群に比較して小さくなった”. The tumor growth rate ([2]; day 7 after start of dosing, n=10, relative to estimated tumor volume on day 1, control 1068±197%, P=0.02 (Fig. 2)) was 493±81%, the tumor weight ([2]; day 15 after start of dosing, n=10, control 2.11±0.25 g, P=0.20) was 1.57 ± 0.31 g and the “reduction of tumor weight” value ([2]; day 15 after start of dosing, vs control group, P=0.20) was 25%.
